Experiments:
Format in all cases: biochemical
[1] = target: T1, K-Ras G12D (Homo sapiens, UniProt P01116, G12D); experiment: HTRF resonance energy transfer assay, K-Ras G12D / SOS1 interaction; conditions: HTRF assay of Example 5; read-out: IC50 against K-Ras G12D
T1 construct: made in house; host or cells: E. coli BL21 (DE3)
Text: This assay can be also used to assess a selective inhibition or reduction of signaling output of a mutant Ras protein relative to a wildtype, or relative to a different mutant Ras protein. For example, the equilibrium interaction of wildtype Kras or K-Ras mutant (e.g., wildtype or a mutant thereof) with SOS1 (e.g., hSOS1) can be assessed as a proxy or an indication for a subject compound's ability to bind and inhibit Ras protein. HTRF assay detects from (i) a fluorescence resonance energy transfer (FRET) donor (e.g., antiGST-Europium) that is bound to GST-tagged K-Ras mutant to (ii) a FRET acceptor (e.g., anti-6His-XL665) bound to a His-tagged hSOS1.
The assay buffer can contain˜5 mM HEPES pH 7.4, ˜150 mM NaCl, ˜ 1 mM DTT, 0.05% BSA and 0.0025%(v/v) Igepal. A Ras working solution is prepared in an assay buffer containing typically a suitable amount of the protein construct (e.g., GST-tagged K-Ras mutant) and the FRET donor (e.g., antiGST-Eu(K) from Cisbio, France). A SOS1 working solution is prepared in an assay buffer containing suitable amount of the protein construct (e.g., His-hSOS1) and the FRET acceptor (e.g., anti-6His-XL665 from Cisbio, France). A suitable amount of the protein construct will depend on the range of activity or range of IC50 values being detected or under investigation. For detecting IC50 within a range of 500 nM, the protein constructs of the same range of molarity can be utilized.
A fixed volume of DMSO with or without test compound is transferred into a 384-well plate. Ras working solution is added to all wells of the test plate. SOS1 working solution is added to all wells except for those that are subsequently filled the inhibitor control solution. Upon incubation for about 10 minutes or longer, the fluorescence is measured with a M1000Pro plate reader (Tecan) using HTRF detection (excitation 337 nm, emission 1: 620 nm, emission 2: 665 nm). Compounds are tested in duplicates at different concentrations (for example, 10 μM, 2.5 μM, 0.63 μM, 0.16 μM, 0.04 μM, 0.01 μM test compound). The ratiometric data (i.e., emission 2 divided by emission 1) is used to calculate IC50 values against Ras using GraphPad Prism (GraphPad software). Following this general procedure, samples were tested with or without a subject compound disclosed herein including compounds exemplified in Table 1 to assess their abilities to inhibit a K-Ras mutant relative to another mutant or WT. Signaling output measured in terms of IC50 values can be obtained, a ratio of IC50 against one mutant relative to another mutant can be calculated. For instance, a selective reduction of K-Ras G12D signaling output can be evidenced by a ratio greater than one. In particular, a selective reduction of K-Ras G12D signaling relative to K-Ras WT signaling is evidenced as the ratio of IC50 (against K-Ras WT) to IC50 (against K-Ras G12D) is greater than 1.

[2] = target: T2, K-Ras G12S (Homo sapiens, UniProt P01116, G12S); experiment: HTRF resonance energy transfer assay, K-Ras G12S / SOS1 interaction; conditions: HTRF assay of Example 5; read-out: IC50 against K-Ras G12S
T2 construct: made in house; host or cells: E. coli BL21 (DE3)
Outline: (§1)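 Read-out: HTRF 665/620 nm ratio (excitation 337 nm) after roughly 10 min or longer incubation, used to derive IC50. Donor anti-GST-Eu on GST-K-Ras; acceptor anti-6His-XL665 on His-hSOS1. Duplicate dose series from 10 μM down to 0.01 μM.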

[3] = target: T3, K-Ras G12V (Homo sapiens, UniProt P01116, G12V); experiment: HTRF resonance energy transfer assay, K-Ras G12V / SOS1 interaction; conditions: HTRF assay of Example 5; read-out: IC50 against K-Ras G12V
T3 construct: made in house; host or cells: E. coli BL21 (DE3)
Outline: as §1

[4] = target: T4, K-Ras WT (Homo sapiens, UniProt P01116); experiment: HTRF resonance energy transfer assay, K-Ras WT / SOS1 interaction; conditions: HTRF assay of Example 5; read-out: IC50 against K-Ras WT
T4 construct: made in house; host or cells: E. coli BL21 (DE3)
Outline: as §1

T1 sequence (P01116 1-188 isoform P01116-2 G12D): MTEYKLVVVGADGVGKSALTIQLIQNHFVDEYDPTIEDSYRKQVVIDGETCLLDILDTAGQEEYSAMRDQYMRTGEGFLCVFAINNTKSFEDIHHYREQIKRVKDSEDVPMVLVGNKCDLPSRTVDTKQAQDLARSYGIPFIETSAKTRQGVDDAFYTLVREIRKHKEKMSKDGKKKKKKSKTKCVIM
T3 sequence (P01116 1-188 isoform P01116-2 G12V): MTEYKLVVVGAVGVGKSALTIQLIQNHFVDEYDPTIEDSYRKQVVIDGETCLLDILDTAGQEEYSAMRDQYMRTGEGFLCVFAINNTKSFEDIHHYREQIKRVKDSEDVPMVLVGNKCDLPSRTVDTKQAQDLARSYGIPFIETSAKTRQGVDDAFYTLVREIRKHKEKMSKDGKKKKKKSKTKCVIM
T4 sequence (P01116 1-188 isoform P01116-2): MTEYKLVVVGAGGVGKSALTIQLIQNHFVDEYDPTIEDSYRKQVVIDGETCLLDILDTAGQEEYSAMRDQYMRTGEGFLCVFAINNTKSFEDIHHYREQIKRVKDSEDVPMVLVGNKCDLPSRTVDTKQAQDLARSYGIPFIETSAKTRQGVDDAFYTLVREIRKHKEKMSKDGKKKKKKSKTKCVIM
T2 sequence (P01116 1-188 isoform P01116-2 G12S): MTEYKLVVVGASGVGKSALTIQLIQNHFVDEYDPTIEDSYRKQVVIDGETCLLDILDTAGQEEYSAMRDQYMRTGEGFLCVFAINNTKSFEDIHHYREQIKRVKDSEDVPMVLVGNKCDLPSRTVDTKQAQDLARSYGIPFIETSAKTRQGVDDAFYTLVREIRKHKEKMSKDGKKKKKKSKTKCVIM

| IC50 [1] [nM] | IC50 [2] [nM] | IC50 [3] [nM] | IC50 [4] [nM] | Compound |
| --- | --- | --- | --- | --- |
| < 100 | < 100 | < 100 | < 100 | CC1(O)CCCC(N2CCOc3c(Cl)c(-c4ccc(F)c5sc(N)c(C#N)c45)c(F)c4nc(OC[C@@]56CCCN5C[C@H](F)C6)nc2c34)C1 (stereo partly drawn) [Compound 1069, 2-amino-4-(8-chloro-10-fluoro-2-(((2R,7aS)-2-fluorotetrahydro-1H-pyrrolizin-7a(5H)-yl)methoxy)-4-(3-hydroxy-3-methylcyclohexyl)-5,6-dihydro-4H-[1,4]oxazepino[5,6,7-de]quinazolin-9-yl)-7-fluorobenzo[b]thiophene-3-carbonitrile] |
| < 100 | < 100 | < 100 | < 100 | C#C[C@H]1COc2c(Cl)c(-c3ccc(F)c4sc(N)c(C#N)c34)c(F)c3nc(OC[C@@]45CCCN4C[C@H](F)C5)nc(c23)N1C1CCOC1 (stereo partly drawn) [Compound 843, 2-amino-4-((5S)-8-chloro-5-ethynyl-10-fluoro-2-(((2R,7aS)-2-fluorotetrahydro-1H-pyrrolizin-7a(5H)-yl)methoxy)-4-(tetrahydrofuran-3-yl)-5,6-dihydro-4H-[1,4]oxazepino[5,6,7-de]quinazolin-9-yl)-7-fluorobenzo[b]thiophene-3-carbonitrile] |
| < 100 | < 100 | < 100 | < 100 | N#Cc1c(N)sc2c(F)ccc(-c3c(Cl)c4c5c(nc(OC[C@@]67CCCN6C[C@H](F)C7)nc5c3F)NCCC(CO)O4)c12 (stereo partly drawn) [Compound 1214, 2-amino-4-(9-chloro-11-fluoro-2-(((2R,7aS)-2-fluorotetrahydro-1H-pyrrolizin-7a(5H)-yl)methoxy)-7-(hydroxymethyl)-4,5,6,7-tetrahydro-[1,5]oxazocino[4,3,2-de]quinazolin-10-yl)-7-fluorobenzo[b]thiophene-3-carbonitrile] |
| < 100 | < 100 | < 100 | < 100 | C=C[C@H]1COc2c(Cl)c(-c3ccc(F)c4sc(N)c(C#N)c34)c(F)c3nc(OC[C@@]45CCCN4C[C@H](F)C5)nc(c23)N1CCOC (single isomer, unassigned) [Compound 917] |
| < 100 | < 100 | < 100 | < 100 | N#Cc1c(N)sc2c(F)ccc(-c3c(Cl)c4c5c(nc(OC[C@@]67CCCN6C[C@H](F)C7)nc5c3F)N(C3CC35CCNC5)CCO4)c12 (stereo partly drawn) [Compound 735, 2-amino-4-(8-chloro-10-fluoro-2-(((2R,7aS)-2-fluorotetrahydro-1H-pyrrolizin-7a(5H)-yl)methoxy)-4-(5-azaspiro[2.4]heptan-1-yl)-5,6-dihydro-4H-[1,4]oxazepino[5,6,7-de]quinazolin-9-yl)-7-fluorobenzo[b]thiophene-3-carbonitrile] |
| < 100 | < 100 | < 100 | < 100 | CC1Oc2c(Cl)c(-c3ccc(F)c4sc(N)c(C#N)c34)c(F)c3nc(OC[C@@]45CCCN4C[C@H](F)C5)nc(c23)N(CC(F)F)C1CC#N (stereo partly drawn) [Compound 968, 2-amino-4-(8-chloro-5-(cyanomethyl)-4-(2,2-difluoroethyl)-10-fluoro-2-(((2R,7aS)-2-fluorotetrahydro-1H-pyrrolizin-7a(5H)-yl)methoxy)-6-methyl-5,6-dihydro-4H-[1,4]oxazepino[5,6,7-de]quinazolin-9-yl)-7-fluorobenzo[b]thiophene-3-carbonitrile] |
| < 100 | < 100 | < 100 | < 100 | C[C@H]1C[C@@H](N2CCOc3c(Cl)c(-c4ccc(F)c5sc(N)c(C#N)c45)c(F)c4nc(OC[C@@]56CCCN5C[C@H](F)C6)nc2c34)CN1 [Compound 1010, 2-amino-4-(8-chloro-10-fluoro-2-(((2R,7aS)-2-fluorotetrahydro-1H-pyrrolizin-7a(5H)-yl)methoxy)-4-((3R,5S)-5-methylpyrrolidin-3-yl)-5,6-dihydro-4H-[1,4]oxazepino[5,6,7-de]quinazolin-9-yl)-7-fluorobenzo[b]thiophene-3-carbonitrile] |
| < 100 | < 100 | < 100 | < 100 | CN1c2nc(OC[C@@]34CCCN3C[C@H](F)C4)nc3c(F)c(-c4ccc(F)c5sc(N)c(C#N)c45)c(Cl)c(c23)OC[C@@H]1CNC(=O)C(F)F [Compound 1018, N-(((5S)-9-(2-amino-3-cyano-7-fluorobenzo[b]thiophen-4-yl)-8-chloro-10-fluoro-2-(((2R,7aS)-2-fluorotetrahydro-1H-pyrrolizin-7a(5H)-yl)methoxy)-4-methyl-5,6-dihydro-4H-[1,4]oxazepino[5,6,7-de]quinazolin-5-yl)methyl)-2,2-difluoroacetamide] |
| < 100 | < 100 | < 100 | < 100 | CC(O)C1COc2c(Cl)c(-c3ccc(F)c4sc(N)c(C#N)c34)c(F)c3nc(OC[C@@]45CCCN4C[C@H](F)C5)nc(c23)N1CC1CNC1 (stereo partly drawn) [Compound 848, 2-amino-4-(4-(azetidin-3-ylmethyl)-8-chloro-10-fluoro-2-(((2R,7aS)-2-fluorotetrahydro-1H-pyrrolizin-7a(5H)-yl)methoxy)-5-(1-hydroxyethyl)-5,6-dihydro-4H-[1,4]oxazepino[5,6,7-de]quinazolin-9-yl)-7-fluorobenzo[b]thiophene-3-carbonitrile] |
| < 100 | < 100 | < 100 | < 100 | N#Cc1c(N)sc2c(F)ccc(-c3c(Cl)c4c5c(nc(OC[C@@]67CCCN6C[C@H](F)C7)nc5c3F)N(CC(F)F)[C@@H](C3CC(C#N)C3)CO4)c12 (stereo partly drawn) [Compound 753, 2-amino-4-((S)-8-chloro-5-(3-cyanocyclobutyl)-4-(2,2-difluoroethyl)-10-fluoro-2-(((2R,7aS)-2-fluorotetrahydro-1H-pyrrolizin-7a(5H)-yl)methoxy)-5,6-dihydro-4H-[1,4]oxazepino[5,6,7-de]quinazolin-9-yl)-7-fluorobenzo[b]thiophene-3-carbonitrile] |
| < 100 | < 100 | < 100 | < 100 | C=C(C(F)F)[C@H]1COc2c(Cl)c(-c3ccc(F)c4sc(N)c(C#N)c34)c(F)c3nc(OC[C@@]45CCCN4C[C@H](F)C5)nc(c23)N1CC(F)F (single isomer, unassigned) [Compound 629] |

| Compound | IC50 [1] [nM] | IC50 [2] [nM] | IC50 [3] [nM] | IC50 [4] [nM] |
| --- | --- | --- | --- | --- |
| N#Cc1c(N)sc2c(F)ccc(-c3c(Cl)c4c5c(nc(OC[C@@]67CCCN6C[C@H](F)C7)nc5c3F)N(C3CCCCN(C(=O)C5CN5)C3)CCO4)c12 (stereo partly drawn) [Compound 934, 2-amino-4-(4-(1-(aziridine-2-carbonyl)azepan-3-yl)-8-chloro-10-fluoro-2-(((2R,7aS)-2-fluorotetrahydro-1H-pyrrolizin-7a(5H)-yl)methoxy)-5,6-dihydro-4H-[1,4]oxazepino[5,6,7-de]quinazolin-9-yl)-7-fluorobenzo[b]thiophene-3-carbonitrile] | < 100 | < 100 | < 100 | < 100 |

From US12209102B2, “Heterocyclic compounds and uses thereof” (Kumquat Biosciences Inc., priority 2022, dated 2025)
